In assay [1] the test system is non-small cell lung carcinoma cell line PC9. The experiment in a line: CellTitre-Glo viability, PC9. In kind it is cell-based, human. How it is done:
FIG. 14 provides exemplary data showing that Human T cells, but not cancer cells, are resistant to Erlotinib. (A) Human Jurkat T cells (red circle) and human non-small cell lung carcinoma cell lines PC9 (black square) and HCC827 (blue triangle) were treated with increasing concentrations of the receptor tyrosine kinase inhibitor Erlotinib. […] Cell viability was measured at 48 hours by CellTitre-Glo® luminescence.
FIG. 14 provides exemplary data showing that Human T cells, but not cancer cells, are resistant to Erlotinib. Human Jurkat T cells, primary T cells and human non-small cell lung carcinoma cell lines PC9 and HCC827 were treated with increasing concentrations of the receptor tyrosine kinase inhibitor Erlotinib. […] PC9 cells were incubated in the presence of Erlotinib, P-Erlotinib, or P-Erlotinib in the presence of purified CPG2. Cell viability was measured at 48 hours by CellTitre-Glo® luminescence.

Assay [2] relates to lung adenocarcinoma cells (HCC827). The experiment in a line: Co-culture of GFP+ 293tCPGTM cells with HCC827 plus erlotinib prodrug. Conditions: 293tCPGTM:HCC827 various ratios, 120 hr. In kind it is cell-based. As for the experimental part:
FIG. 15 provides exemplary data showing the pro-drug activity of 293T cells expressing transmembrane CPG2. GFP+293t^CPGTM cells were co-cultured with lung adenocarcinoma cells (HCC827) at various ratios (293t^CPGTM:HCC827) and the erlotinib prodrug (p-erlotinib) was added. (A) Cells were analyzed at 120 hour by flow cytometry and % GFP was calculated. (B) Ratio of 293t^CPGTM cells to HCC827 cells was calculated for each cell ratio.
The retroviral constructs encoding the anti-CD19 CAR and transmembrane CPG2 enzyme described above were transduced into 293T cells to test the conversion activity of transmembrane CPG2 for an Erlotinib prodrug. GFP+293t^CPGTM cells were co-cultured with lung adenocarcinoma cells (HCC827) at various ratios (293t^CPGTM:HCC827) and the erlotinib prodrug (p-erlotinib) was added. Cells were analyzed at 120 hr. by flow cytometry (FIG. 15A) and the percentage of GFP cells and the ratio of 293t^CPGTM cells to HCC827 cells was calculated for each cell ratio (FIG. 15B).

Results on 1 compound are retold here after US12178830B2, “Compositions and methods for adoptive cell therapy for cancer” (MEMORIAL SLOAN KETTERING CANCER CENTER, priority 2017, dated 2024).

Regarding `C#Cc1cccc(N(Cc2ccc(NC(=O)N[C@@H](CCC(=O)O)C(=O)O)cc2)c2ncnc3cc(OCCOC)c(OCCOC)cc23)c1` [P-Erlotinib, ((4-(((6,7-bis(2-methoxyethoxy)quinazolin-4-yl)(3-ethynylphenyl)amino)methyl)phenyl)carbamoyl)-L-glutamic acid], the “toxicity in PC9 cells” value in assay [1] (1 μM, without CPG2, 48 hours) is recorded as “no toxicity”. For the same compound, the “activity of cleaved prodrug in PC9 cells” value in assay [1] (in the presence of purified CPG2, 48 hours) is listed as “comparable activity to the active drug”. Also, in assay [2], the “killing in co-culture with transmembrane CPG2 cells” value is “kills the target cancer cell, but not the cell secreting the enzyme”.
